The source of these data is patent US12258332B2, “ASGPR cell surface receptor binding compounds and conjugates” (Lycia Therapeutics, Inc., priority 2021, dated 2025).

pIC50: −log10 of the molar value. Like-named read-outs stand apart in the source and are kept apart here. Where only a bound is given, the exact number is not on record here.

The target in assay [1] is T1, ASGPR (Homo sapiens, UniProt P07306).
T1 construct: purchased Acro Biosystems
T1 sequence (P07306 1-291): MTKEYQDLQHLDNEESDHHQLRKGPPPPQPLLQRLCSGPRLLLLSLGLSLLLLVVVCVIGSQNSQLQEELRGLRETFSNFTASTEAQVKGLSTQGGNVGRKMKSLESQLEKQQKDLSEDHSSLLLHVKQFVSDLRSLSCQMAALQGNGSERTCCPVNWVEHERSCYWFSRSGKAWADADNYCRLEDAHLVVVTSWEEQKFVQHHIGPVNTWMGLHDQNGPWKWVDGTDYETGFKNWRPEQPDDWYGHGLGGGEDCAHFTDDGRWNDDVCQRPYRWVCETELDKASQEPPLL
The experiment in a line: ASGPR binding by fluorescence polarization assay (GalNac-Cy5 probe). The following applies: for pIC50: 80 nM ASGPR, 1 nM probe, 2 hr incubation. As to the method: Assay Procedure: ASGPR binding was measured in black 96-well plates using a fluorescence polarization assay. A fluorescent probe consisting of a tri-GalNAc linked to Cy5 (GalNac-Cy5, depicted below) was custom synthesized. Example compounds were resuspended in DMSO and 3-fold serial dilutions were made at 100× final concentrations. Binding reactions were conducted in 100 μl final volume in 20 mM Hepes (pH 7.5) 50 mM NaCl 5 mM CaCl2 0.015% Triton X-100 1% DMSO with 80 nM ASGPR (Acro Biosystems) and 1 nM probe. Fluorescence polarization was measured using λex=620 nm, λem=688 nm on an Envision plate reader (Perkin Elmer) after 2 hr incubation time. Dose responses were conducted in duplicate and normalized to the response with DMSO (high) and 1 μM reference compound 18G (low) on each plate. IC50 values were determined by fitting to 4-parameter curves in GraphPad Prism.
Example monovalent compounds (depicted below) were assessed at 100 μM as compared to a reference compound 18G (e.g., intermediate compound 18G in Example 14) as a positive control, following the assay procedure outlined in Example 68.
A general note: In fluorescence polarisation assays a small probe gives low polarisation when free and higher when bound to something large.

The test system of assay [2] is HepG2 cells. The experiment in a line: Uptake of Alexa488-labelled target IgE bound to omalizumab (OMA) conjugates in HepG2 cells, flow cytometry. The class given is cell-based, human. As to conditions: omalizumab (anti-IgE) conjugate bound to IgE-Alexa488, equal molar ratios; 1 hour. The protocol:
(§1) The omalizumab conjugates of Example 60 were bound to IgE-Alexa488 (prepared according to Example 62), as follows: equal molar ratios of omalizumab (anti-IgE) conjugate and IgE-Alexa488 were added in tissue culture media for 30 minutes at room temperature. The resulting anti-IgE conjugate:IgE antibody-Alexa488 compositions were added to HepG2 cells (100 k cells/50 ul per well, n=2), and Alexa488 fluorescence levels in the cells were measured at 1 hour by flow cytometry. As the fluorescently labelled target (IgE antibody) accumulates in cells, the fluorescence presents a way to measure total intracellular uptake by cells over time.
as §1, with “OMA Ab” for “The omalizumab”, “example compounds I-160-I-163 and I-141” for “Example 60”, “by adapting procedure in” for “according to”, “61),” for “62),”, “OMA(anti-IgE)” for “omalizumab (anti-IgE)”

The mark [3] stands for this setting: trivalent compounds, read-out: IC50.
Where [4] appears, read: trivalent compounds, dose response curves.
Setting [5] is: monovalent compounds, read-out: IC50 (MM).

Turning to `NC(CCC(=O)NCCOCCOCCOCc1cn([C@H]2[C@H]3OC[C@](CO)(O3)[C@H](O)[C@@H]2O)nn1)(CCC(=O)NCCOCCOCCOCc1cn([C@H]2[C@H]3OC[C@](CO)(O3)[C@H](O)[C@@H]2O)nn1)CCC(=O)NCCOCCOCCOCc1cn([C@H]2[C@H]3OC[C@](CO)(O3)[C@H](O)[C@@H]2O)nn1` [XB40, 4-amino-4-(1-(1-((1S,2R,3R,4R,5S)-2,3-dihydroxy-1-(hydroxymethyl)-6,8-dioxabicyclo[3.2.1]octan-4-yl)-1H-1,2,3-triazol-4-yl)-12-oxo-2,5,8-trioxa-11-azatetradecan-14-yl)-N1,N7-bis(2-(2-(2-((1-((1S,2R,3R,4R,5S)-2,3-dihydroxy-1-(hydroxymethyl)-6,8-dioxabicyclo[3.2.1]octan-4-yl)-1H-1,2,3-triazol-4-yl)methoxy)ethoxy)ethoxy)ethyl)heptanediamide], the pIC50 in assay [1] (setting [3]) was at least 7.30.

For `CC(=O)N[C@@H]1[C@@H](O)[C@@H](O)[C@@H](CO)O[C@H]1n1cc(COCCOCCOCCNC(=O)CCC(CCC(=O)NCCOCCOCCOCc2cn([C@@H]3O[C@H](CO)[C@H](O)[C@H](O)[C@H]3NC(C)=O)nn2)(CCC(=O)NCCOCCOCCOCc2cn([C@@H]3O[C@H](CO)[C@H](O)[C@H](O)[C@H]3NC(C)=O)nn2)NC(=O)CCCCCCCCCCC(=O)Oc2c(F)c(F)c(F)c(F)c2F)nn1` [Compound I-143, perfluorophenyl 1-(1-((2R,3R,4R,5R,6R)-3-acetamido-4,5-dihydroxy-6-(hydroxymethyl)tetrahydro-2H-pyran-2-yl)-1H-1,2,3-triazol-4-yl)-15,15-bis(1-(1-((2R,3R,4R,5R,6R)-3-acetamido-4,5-dihydroxy-6-(hydroxymethyl)tetrahydro-2H-pyran-2-yl)-1H-1,2,3-triazol-4-yl)-12-oxo-2,5,8-trioxa-11-azatetradecan-14-yl)-12,17-dioxo-2,5,8-trioxa-11,16-diazaoctacosan-28-oate], the “relative uptake activity of Alexa488 labeled-target IgE in HepG2 cells” value in assay [2] is recorded as “superior activity to the reference conjugate”.

For the compound `CC(=O)N[C@H]1[C@H](OCCCCC(=O)NCCCNC(=O)CCOCC(COCCC(=O)NCCCNC(=O)CCCCO[C@@H]2O[C@H](CO)[C@H](O)[C@H](O)[C@H]2NC(C)=O)(COCCC(=O)NCCCNC(=O)CCCCO[C@@H]2O[C@H](CO)[C@H](O)[C@H](O)[C@H]2NC(C)=O)NC(=O)CCCCCCCCCCC(=O)O)O[C@H](CO)[C@H](O)[C@@H]1O` [Compound I-124acid, reference compound], the “ASGPR binding affinity compared to reference compound 18G / other trivalent compounds” value in assay [1] (setting [4]) is “reduced ASGPR binding affinity”. Further, in assay [1] (setting [3]), the pIC50 is under 7.00.

As for `C#CC[C@H]1O[C@H](CO)[C@H](O)[C@H](O)[C@H]1NC(C)=O` [Compound 591], the “ASGPR binding affinity among the tested monomers” value in assay [1] (monovalent compounds, dose response curves) is “highest affinity of the tested monomers”. Moreover, the pIC50 in assay [1] (setting [5]) is 4.30 to 6.00.

`C#CCCCO[C@H]1CO[C@H](CO)[C@H](O)[C@@H]1O` [Compound 593]: in assay [1] (monovalent compounds at 100 μM), the “binding as a percentage of the activity of reference compound 18G” value is given as under 50%.

With `O=C(O)CCCCCCCCCCC(=O)NC(COCCC(=O)NCCCCNC(=O)c1cccc(OCc2cn([C@H]3CO[C@H](CO)[C@H](O)[C@@H]3O)nn2)c1)(COCCC(=O)NCCCCNC(=O)c1cccc(OCc2cn([C@H]3CO[C@H](CO)[C@H](O)[C@@H]3O)nn2)c1)COCCC(=O)NCCCCNC(=O)c1cccc(OCc2cn([C@H]3CO[C@H](CO)[C@H](O)[C@@H]3O)nn2)c1` [1901 (I-171), 13,13-bis((3-((4-(3-((1-((3S,4R,5R,6R)-4,5-dihydroxy-6-(hydroxymethyl)tetrahydro-2H-pyran-3-yl)-1H-1,2,3-triazol-4-yl)methoxy)benzamido)butyl)amino)-3-oxopropoxy)methyl)-1-(3-((1-((3S,4R,5R,6R)-4,5-dihydroxy-6-(hydroxymethyl)tetrahydro-2H-pyran-3-yl)-1H-1,2,3-triazol-4-yl)methoxy)phenyl)-1,8,15-trioxo-11-oxa-2,7,14-triazahexacosan-26-oic acid], in assay [1] (setting [4]), the “ASGPR binding affinity compared to reference compound 18G / other trivalent compounds” value is “comparable affinity as reference compound 18G”. In addition, the pIC50 in assay [1] (setting [3]) was at least 7.30.

Consider `OC[C@H]1OC[C@H](Nc2cc(C(F)(F)F)ccn2)[C@@H](O)[C@H]1O` [XB23], for which the pIC50 in assay [1] (setting [5]) was 4.30 to 6.00.

Take `O=C(O)CCCCCCCCCCC(=O)NC(CCC(=O)NCCOCCOCCn1cc(COc2nc(N[C@H]3CO[C@H](CO)[C@H](O)[C@@H]3O)cc(C(F)(F)F)n2)nn1)(CCC(=O)NCCOCCOCCn1cc(COc2nc(N[C@H]3CO[C@H](CO)[C@H](O)[C@@H]3O)cc(C(F)(F)F)n2)nn1)CCC(=O)NCCOCCOCCn1cc(COc2nc(N[C@H]3CO[C@H](CO)[C@H](O)[C@@H]3O)cc(C(F)(F)F)n2)nn1` [Compound 1920]: the pIC50 in assay [1] (setting [3]) was under 7.00.

For `CC(C)(C)C(=O)N[C@H]1CO[C@H](CO)[C@H](O)[C@@H]1O` [Compound 592], in assay [1] (setting [5]), the pIC50 is under 4.30.

As for `CC(=O)N[C@H]1[C@H](OCCCCC(=O)NCCCNC(=O)CCOCC(N)(COCCC(=O)NCCCNC(=O)CCCCO[C@@H]2O[C@H](CO)[C@H](O)[C@H](O)[C@H]2NC(C)=O)COCCC(=O)NCCCNC(=O)CCCCO[C@@H]2O[C@H](CO)[C@H](O)[C@H](O)[C@H]2NC(C)=O)O[C@H](CO)[C@H](O)[C@@H]1O` [Compound 18G], the pIC50 was at least 6.00 in assay [1] (setting [5]) and at least 7.30 in assay [1] (setting [3]).

`O=C(O)CCCCCCCCCCC(=O)NC(COCCC(=O)NCCCCNC(=O)c1ccc(OCc2cn([C@H]3CO[C@H](CO)[C@H](O)[C@@H]3O)nn2)cc1)(COCCC(=O)NCCCCNC(=O)c1ccc(OCc2cn([C@H]3CO[C@H](CO)[C@H](O)[C@@H]3O)nn2)cc1)COCCC(=O)NCCCCNC(=O)c1ccc(OCc2cn([C@H]3CO[C@H](CO)[C@H](O)[C@@H]3O)nn2)cc1` [1902 (I-172), 13,13-bis((3-((4-(4-((1-((3S,4R,5R,6R)-4,5-dihydroxy-6-(hydroxymethyl)tetrahydro-2H-pyran-3-yl)-1H-1,2,3-triazol-4-yl)methoxy)benzamido)butyl)amino)-3-oxopropoxy)methyl)-1-(4-((1-((3S,4R,5R,6R)-4,5-dihydroxy-6-(hydroxymethyl)tetrahydro-2H-pyran-3-yl)-1H-1,2,3-triazol-4-yl)methoxy)phenyl)-1,8,15-trioxo-11-oxa-2,7,14-triazahexacosan-26-oic acid]: the “ASGPR binding affinity compared to reference compound 18G / other trivalent compounds” value in assay [1] (setting [4]) is reported as “comparable affinity as reference compound 18G”. In assay [1] (setting [3]), the negative logarithm of the IC50 (pIC50) was at least 7.30.

As to `NC(CCC(=O)NCCOCCOCCOCc1cn([C@H]2CO[C@H](CO)[C@H](O)[C@@H]2O)nn1)(CCC(=O)NCCOCCOCCOCc1cn([C@H]2CO[C@H](CO)[C@H](O)[C@@H]2O)nn1)CCC(=O)NCCOCCOCCOCc1cn([C@H]2CO[C@H](CO)[C@H](O)[C@@H]2O)nn1` [XB32, 4-amino-4-(1-(1-((3S,4R,5R,6R)-4,5-dihydroxy-6-(hydroxymethyl)tetrahydro-2H-pyran-3-yl)-1H-1,2,3-triazol-4-yl)-12-oxo-2,5,8-trioxa-11-azatetradecan-14-yl)-N1,N7-bis(2-(2-(2-((1-((3S,4R,5R,6R)-4,5-dihydroxy-6-(hydroxymethyl)tetrahydro-2H-pyran-3-yl)-1H-1,2,3-triazol-4-yl)methoxy)ethoxy)ethoxy)ethyl)heptanediamide], in assay [1] (setting [4]), the “ASGPR binding affinity compared to reference compound 18G / other trivalent compounds” value is “comparable affinity as reference compound 18G”. In addition, in assay [1] (setting [3]), the pIC50 was 7.00 to 7.30.

Regarding `O=C(O)c1cccc(OCc2cn([C@H]3CO[C@H](CO)[C@H](O)[C@@H]3O)nn2)c1` [XB20, 3-((1-((3S,4R,5R,6R)-4,5-dihydroxy-6-(hydroxymethyl)tetrahydro-2H-pyran-3-yl)-1H-1,2,3-triazol-4-yl)methoxy)benzoic acid], the pIC50 in assay [1] (setting [5]) was 4.30 to 6.00.

The term pIC50 denotes the IC50 on a negative log10 scale, so that one unit is a factor of ten.
